Measured values from patent publication US20070010518A1, “Method for administering levosimendan” (priority 2005, published 2007).

Experiments:
Format in all cases: in vivo, human
[1] = tested on: patients with New York Heart Association functional class II to III heart failure; experiment: Plasma natriuretic peptide (NT-proANP, NT-proBNP) measurements in double-blind, placebo-controlled study
Experimental: (§1) A double-blind, placebo-controlled, parallel group, single center study in patients with New York Heart Association functional class II to III heart failure was conducted. Patients were randomised in 1:1 ratio to receive either levosimendan or placebo. Study drug administration was initiated with a loading dose of 12 μg/kg of levosimendan or placebo delivered over 10 minutes. This was followed by a continuous infusion of 0.1 μg/kg/min for 50 minutes. If the dose was well tolerated the infusion rate was increased to 0.2 μg/kg/min for a further 23 hours. After the study drug was started, the hemodynamic assessments were repeated at 30 minutes, at two and six hours. The non-invasive hemodynamic assessments were repeated at 24-hours. Follow-up visits took place at 2, 3, 5, 7, 9 and 14 days from the beginning of the study. On these visits echocardiographic measurements were performed and blood pressure and heart rate were measured.
Blood samples (4 ml) for natriuretic peptide (NT-proANP, NT-proBNP) measurements were taken into pre-cooled EDTA tubes. Samples were taken at baseline (0-sample) and on the first study day 30 min, 2 h, 6h and 24 h after the start of the infusion and in the mornings of days 2, 3, 5, 7, 9 and 14 after the start of the study drug infusion.

[2] = tested on: patients with New York Heart Association functional class II to III heart failure; experiment: Doppler echocardiographic hemodynamic measurements in double-blind, placebo-controlled study
Experimental: as §1
An Acuson Sequoia ultrasound system with 2.5-3.75 MHz probes was used for the Doppler echocardiographic measurements. Blood flow velocity curves were recorded at a sweep speed of 100 mm/s. Left ventricular ejection fraction was assessed by two-dimensional apical two- and four-chamber views with use of modified Simpson rule. Mitral flow velocity was assessed by pulsed wave Doppler from the apical four-chamber view by placing a 3-mm sample volume between the tip of the mitral leaflets in diastole. The following measurements were made over five consecutive cycles: maximal early and maximal late diastolic velocity and their ratio, duration of the late diastolic velocity wave, deceleration time and deceleration rate of early diastolic velocity. Peak velocities were defined as the highest point of the spectrum.

[3] = tested on: patients with New York Heart Association functional class II to III heart failure; experiment: Invasive hemodynamic assessments in double-blind, placebo-controlled study
Experimental: as §1

[4] = after start of 24-hour infusion
[5] = after starting the 24-hour infusion
[6] = echocardiography, 24-hour infusion

C[C@@H]1CC(=O)NN=C1c1ccc(NN=C(C#N)C#N)cc1 [levosimendan, (−)-enantiomer of [[4-(1,4,5,6-tetrahydro-4-methyl-6-oxo-3-pyridazinyl)phenyl]hydrazono]propanedinitrile]
Duration of treatment effect on plasma NT-proANP estimated by a linear model ([1]; 24-hour infusion): 16 days | Duration of treatment effect on plasma NT-proBNP estimated by a linear model ([1]; 24-hour infusion): 12 days | Day at which plasma NT-proANP level reached its lowest value [1, 4]: 3 days | Day at which plasma NT-proBNP level reached its lowest value [1, 4]: 2 days | Maintenance of beneficial hemodynamic and neurohormonal effects ([2]; after levosimendan administration (24-hour infusion)): maintained up to two weeks | Time at which echocardiographically estimated PCWP reached its lowest value [2, 5]: 2 days | Time of maximal effects on hemodynamic parameters [2, 5]: 1 to 3 days | Linearly estimated duration of an increase in CO [2, 6]: 13 days | Linearly estimated duration of the decrease in PCWP [2, 6]: 9 days | Time at which highest CO value estimated by echocardiography was detected ([2]; end of the 24-hour infusion): 24 h | Invasively measured cardiac output (CO) ([3]; at six hours, loading dose 12 μg/kg, then infusion 0.1-0.2 μg/kg/min): 5.4 L/min | Invasively measured cardiac output (CO) ([3]; baseline, levosimendan group): 4.3 L/min | PCWP ([3]; baseline, levosimendan treatment): 20 mmHg | PCWP ([3]; in response to levosimendan treatment, loading dose 12 μg/kg, then infusion 0.1-0.2 μg/kg/min): 15 mmHg
